In PMC7806935, “Exosite inhibition of ADAMTS-5 by a glycoconjugated arylsulfonamide” (Scientific Reports, 2021):

How the values were obtained:
ADAMTS-4 [1] = target: T1, ADAMTS-4 (Homo sapiens, UniProt O75173); test: Versican digestion assay (V1-5GAG, sandwich ELISA), ADAMTS-4; type: biochemical; details: protein substrate V1-5GAG, mean ± SEM (n = 3)
T1 construct: made in house
T1 sequence (O75173 213-837): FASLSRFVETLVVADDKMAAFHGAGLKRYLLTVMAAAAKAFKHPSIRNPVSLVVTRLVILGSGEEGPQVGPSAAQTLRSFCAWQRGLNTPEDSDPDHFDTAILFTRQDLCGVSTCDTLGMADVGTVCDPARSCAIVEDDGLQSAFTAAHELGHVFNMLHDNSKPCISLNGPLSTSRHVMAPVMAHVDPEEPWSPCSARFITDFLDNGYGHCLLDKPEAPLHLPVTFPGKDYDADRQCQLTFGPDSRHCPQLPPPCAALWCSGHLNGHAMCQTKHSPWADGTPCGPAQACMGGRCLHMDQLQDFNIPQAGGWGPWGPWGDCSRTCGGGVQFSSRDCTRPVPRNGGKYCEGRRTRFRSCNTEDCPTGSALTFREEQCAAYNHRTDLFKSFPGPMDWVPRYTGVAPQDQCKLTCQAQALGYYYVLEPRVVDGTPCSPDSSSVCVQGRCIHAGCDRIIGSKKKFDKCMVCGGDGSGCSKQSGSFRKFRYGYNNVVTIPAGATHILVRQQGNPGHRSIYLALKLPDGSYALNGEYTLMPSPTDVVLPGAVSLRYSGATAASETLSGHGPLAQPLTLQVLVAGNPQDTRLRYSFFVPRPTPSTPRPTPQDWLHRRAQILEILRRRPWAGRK
Procedure: (§1) All enzyme assays were conducted in TNC-B buffer (50 mM Tris–HCl, pH 7.5, 150 mM NaCl, 10 mM CaCl2, and 0.02% NaN3) at 37 °C. To avoid the formation of inhibitor aggregates, the detergent Brij-35 (0.05%) was added to the assay buffer. No aggregation was visually observed at concentrations up to 2 mM. The inhibitor stock solutions in DMSO (10 mM) were diluted at different concentrations in assay buffer and incubated with ADAMTS-4 or ADAMTS-5 for 2 h at 37 °C. Percent of inhibition was calculated from control reactions containing only DMSO. IC50 values were determined using the formula: vi/v0 = 1/(1 + [I]/IC50) where vi is the initial velocity of substrate cleavage in the presence of the inhibitor at concentration [I] and v0 is the initial velocity in the presence of an equal concentration (v/v) of DMSO.
(§2) ADAMTS-5 full-length (FL) (final concentration 0.4 nM), ADAMTS-5 MDTCS (0.4 nM) ADAMTS-5 MD (26 nM) or ADAMTS-4 (5.5 nM) were incubated with different concentrations of inhibitors or DMSO for 2 h at 37 °C in TNC-B buffer before addition of V1-5GAG (50 nM). At different time points (0–20 min), sub-samples were removed and reactions were stopped with EDTA. Maxisorp plates (VWR, Lutterworth, UK) were coated with 5 μg/mL anti-DPEEAE neoepitope antibody (Cat n. PA1-1748A, Life Technologies, Paisley, UK) in carbonate buffer pH 9.6 (16 h, 4 °C). This neoepitope antibody specifically recognizes the N-terminal versican fragment versikine, generated when ADAMTS-5 cleaves versican at the Glu441↓442Ala bond. Washing steps were performed in triplicate with 300 μL phosphate buffered-saline (PBS) containing 0.1% Tween-20 between each step. Plates were blocked with 3% bovine serum albumin (BSA)/PBS for 2 h, at RT. The samples from the digestion experiments were diluted in 3% BSA/PBS and added to the plate (100 μL, 2 h, RT). Bound versikine fragments were detected using anti-G1 monoclonal antibody (Cat n. ab171887, Abcam, Cambridge, UK) (3 μg/mL in 0.5% BSA/PBS, 1.5 h, RT), followed by horseradish peroxidase (HRP)-conjugated anti-mouse antibodies (Cat. N. P044701-2, Agilent Technologies LTD, Cheadle, UK) (2.4 μg/mL, 1 h, RT). The assay was developed by addition of o-phenylenediamine dihydrochloride (OPD, Cat n. 34006, Sigma Aldrich, Gillingham, UK) for 10 min and reactions were stopped with 2 M H2SO4. The absorbance was measured at 492 nm using a BioTeK Epoch (BioTek, Swindon, UK) plate reader. For each dilution, the amount of neoepitope generated was derived from a standard curve (0–1.56 nM) of V1-5GAG completely digested with ADAMTS-5. Initial velocities were calculated from the concentration of versikine generated as a function of reaction time and IC50 values were determined.
(§3) For inhibition studies, initial rates of proteolysis (< 20% cleavage) were analyzed between 0 and 20 min. For determination of the specificity constants (kcat/Km), digestion reactions were allowed to occur to completion (0–2 h). Data were analyzed as previously described.

ADAMTS-5 [2] = target: T2, ADAMTS-5 (Homo sapiens, UniProt Q9UNA0); test: Versican digestion assay (V1-5GAG, sandwich ELISA), ADAMTS-5; type: biochemical; details: for IC50: protein substrate V1-5GAG, mean ± SEM (n = 3)
T2 construct: made in house
T2 sequence (Q9UNA0 262-930): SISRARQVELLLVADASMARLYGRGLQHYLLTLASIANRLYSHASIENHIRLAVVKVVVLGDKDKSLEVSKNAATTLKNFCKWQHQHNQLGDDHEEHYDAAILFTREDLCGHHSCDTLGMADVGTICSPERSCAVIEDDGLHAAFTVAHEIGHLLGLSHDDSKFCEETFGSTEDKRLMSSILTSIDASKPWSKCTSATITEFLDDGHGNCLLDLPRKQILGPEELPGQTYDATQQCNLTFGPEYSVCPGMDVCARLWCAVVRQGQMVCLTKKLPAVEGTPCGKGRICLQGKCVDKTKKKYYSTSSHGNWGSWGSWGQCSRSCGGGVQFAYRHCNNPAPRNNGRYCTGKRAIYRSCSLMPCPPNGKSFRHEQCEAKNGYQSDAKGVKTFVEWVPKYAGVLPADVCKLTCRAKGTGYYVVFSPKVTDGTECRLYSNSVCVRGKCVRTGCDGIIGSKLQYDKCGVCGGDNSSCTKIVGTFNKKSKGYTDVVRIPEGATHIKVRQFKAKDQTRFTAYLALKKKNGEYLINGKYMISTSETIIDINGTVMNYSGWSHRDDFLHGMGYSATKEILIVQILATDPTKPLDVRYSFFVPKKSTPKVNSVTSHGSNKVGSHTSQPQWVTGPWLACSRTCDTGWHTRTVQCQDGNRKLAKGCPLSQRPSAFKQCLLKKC
Procedure: as §1, §2, §3

ADAMTS-4 [3] = target: T1, ADAMTS-4; test: QF peptide cleavage assay, ADAMTS-4; type: biochemical; details: 12-residue QF peptide substrate; mean ± SEM (n = 3); read-out: IC50 (μM) QF peptide ATS4
Procedure: as §1
(§4) QF peptide cleavage assays were conducted in 96-well black microtiter plates (Scientific Laboratories Supplies Ltd, Wilford, UK) using a Fluostar Omega microplate reader (BMG Labtech, Aylesbury, UK). The activity of ADAMTS-4 (1 nM) and -5 (5 nM) was monitored for 2 h using the fluorescent peptide substrates fluorescein 5(6)-carbonyl-Ala-Glu-Leu-[…]-Gly-Arg-Pro-Ile-Ser-Ile-Ala-Lys-N,N,N0,N0-tetramethyl-6-carboxyrhodamine-NH2 (FAM-AE ~ LQGRPISIAK-TAMRA, ADAMTS-4) and fluorescein 5(6)-carbonyl-Thr-Glu-Ser-Glu ~ Ser-Arg-Gly-Ala-Ile-Tyr-Lys-Lys-N,N,N0,N0-tetramethyl-6-carboxyrhodamine-NH2 (FAM-TESE ~ SRGAIYKK-TAMRA, ADAMTS-5) (custom-synthesized by Bachem, Bubendorf, Switzerland) with an excitation wavelength of 485 nm and an emission wavelength of 538 nm. Final substrate concentrations were 1 μM and 40 μM for ADAMTS-4 and -5, respectively. Fluorescence was expressed in relative fluorescence units (RFU) and normalized against a blank containing only buffer and substrate. Emission spectra were recorded at several concentrations of each compound to exclude auto-fluorescence and maximal inhibitor concentrations were selected accordingly.

ADAMTS-5 [4] = target: T2, ADAMTS-5; test: QF peptide cleavage assay, ADAMTS-5; type: biochemical; details: 12-residue QF peptide substrate; mean ± SEM (n = 3); read-out: IC50 (μM) QF peptide ATS5
Procedure: as §1, §4

[5] = target: V1-5GAG, a truncated versican V1 variant (UniProt P13611)
[6] = read-out: IC50 (μM) V1-5GAG ATS4
[7] = read-out: IC50 (μM) V1-5GAG ATS5

Compound	IC50 (ADAMTS-4 [1]; read-out: IC50 (μM) ADAMTS-4)	IC50 (ADAMTS-5 [2]; read-out: IC50 (μM) ADAMTS-5)	kcat/Km for proteolysis of V1-5GAG (time course at 50 nM substrate, versikine by sandwich ELISA) [5]	further results
CCC(C)N(Cc1cn(C2OC(CO)C(O)C(O)C2NC(C)=O)nn1)S(=O)(=O)c1ccc(-c2ccccc2)cc1 (mixture of isomers) [Compound 3b]	50 ± 16 µM	120 ± 20 µM		reduction in inhibition of ADAMTS-5 versicanase activity (ADAMTS-5 [2]; sugar directly linked to the sulfonamide scaffold, compared with n-propyloxy link): ~ 13 fold
CCC(C)N(Cc1cn(CCCOC2OC(CO)C(O)C(O)C2NC(C)=O)nn1)S(=O)(=O)c1ccc(OCc2ccc(F)cc2Cl)cc1 (mixture of isomers) [Compound 4c]				IC50 (ADAMTS-4 [1]; [6]): 90 ± 44 µM; IC50 (ADAMTS-4 [3]): > 50 µM; reduction in inhibitory properties (ADAMTS-5 [2]; benzyloxyphenyl compound compared to 4b): 6 fold; IC50 (ADAMTS-5 [2]; [7]): 62 ± 12 µM; IC50 (ADAMTS-5 [4]): 57 ± 10 µM
CCC(C)N(Cc1cn(CCCOC2OC(CO)C(O)C(O)C2NC(C)=O)nn1)S(=O)(=O)c1ccc(OCc2ccccc2)cc1 (mixture of isomers) [Compound 4d]				IC50 (ADAMTS-4 [1]; [6]): 180 ± 50 µM; IC50 (ADAMTS-4 [3]): > 50 µM; IC50 (ADAMTS-5 [2]; [7]): 90 ± 23 µM; IC50 (ADAMTS-5 [4]): > 50 µM
CC(=O)N[C@@H]1[C@@H](O)[C@H](O)[C@@H](CO)O[C@H]1n1cc(CN([C@@H](C(=O)OCc2ccccc2)C(C)C)S(=O)(=O)c2ccc(-c3ccccc3)cc2)nn1 [Compound 3a]	> 50 µM	> 50 µM		
CC(=O)N[C@H]1[C@H](OCCCn2cc(CN([C@@H](C(=O)OCc3ccccc3)C(C)C)S(=O)(=O)c3ccc(-c4ccccc4)cc3)nn2)O[C@H](CO)[C@@H](O)[C@@H]1O [Compound 4a]	> 50 µM	> 50 µM		
ADAMTS-5 MDTCS (lacking the C-terminal TS motif) (enzyme)			3.23e+06 M⁻¹ s⁻¹	
ADAMTS-5 MDTCS K532A/K533A (enzyme)			675000 M⁻¹ s⁻¹	
ADAMTS-5 MDTCS K532Q/K533Q (enzyme)			401000 M⁻¹ s⁻¹	
ADAMTS-5 MDTCS K533A (enzyme)			1.25e+06 M⁻¹ s⁻¹	
ADAMTS-5 MDTCS K533H (enzyme)			1.56e+06 M⁻¹ s⁻¹	
